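In this assay, cells in 96-well plates receive the compound at five concentrations for 48 hours. Endpoints are linearly interpolated between the surrounding concentrations. TGI denotes the concentration required for complete inhibition of growth.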
Experiments:
Experiment in all cases: NCI tumour cell line growth inhibition, 48 h
786-0 renal = test system: 786-0 renal
A549 NSCLC = test system: A549 NSCLC
ACHN renal = test system: ACHN renal
CAKI-1 renal = test system: CAKI-1 renal
CCRF-CEM leukemia = test system: CCRF-CEM leukemia
COLO 205 colon = test system: COLO 205 colon
DLD-1 colon = test system: DLD-1 colon
DMS 114 small cell lung = test system: DMS 114 small cell lung
DMS 273 small cell lung = test system: DMS 273 small cell lung
EKVX NSCLC = test system: EKVX NSCLC
HCC-2998 colon = test system: HCC-2998 colon
HCT-116 colon = test system: HCT-116 colon
HCT-15 colon = test system: HCT-15 colon
HL-60(TB) leukemia = test system: HL-60(TB) leukemia
HOP-18 NSCLC = test system: HOP-18 NSCLC
HOP-62 NSCLC = test system: HOP-62 NSCLC
HOP-92 NSCLC = test system: HOP-92 NSCLC
HT29 colon = test system: HT29 colon
IGROV1 ovarian = test system: IGROV1 ovarian
K-562 leukemia = test system: K-562 leukemia
KM12 colon = test system: KM12 colon
KM20L2 colon = test system: KM20L2 colon
LOX IMVI melanoma = test system: LOX IMVI melanoma
LXFL 529 NSCLC = test system: LXFL 529 NSCLC
M14 melanoma = test system: M14 melanoma
M19-MEL melanoma = test system: M19-MEL melanoma
MALME-3M melanoma = test system: MALME-3M melanoma
MOLT-4 leukemia = test system: MOLT-4 leukemia
NCI-H226 lung = test system: NCI-H226 lung
NCI-H23 lung = test system: NCI-H23 lung
NCI-H460 lung = test system: NCI-H460 lung
OVCAR-3 ovarian = test system: OVCAR-3 ovarian
OVCAR-4 ovarian = test system: OVCAR-4 ovarian
OVCAR-5 ovarian = test system: OVCAR-5 ovarian
OVCAR-8 ovarian = test system: OVCAR-8 ovarian
RPMI-8226 leukemia = test system: RPMI-8226 leukemia
RXF 393 renal = test system: RXF 393 renal
RXF-631 renal = test system: RXF-631 renal
SF-268 CNS = test system: SF-268 CNS
SF-295 CNS = test system: SF-295 CNS
SF-539 CNS = test system: SF-539 CNS
SK-MEL-2 melanoma = test system: SK-MEL-2 melanoma
SK-MEL-28 melanoma = test system: SK-MEL-28 melanoma
SK-MEL-5 melanoma = test system: SK-MEL-5 melanoma
SK-OV-3 ovarian = test system: SK-OV-3 ovarian
SN12C renal = test system: SN12C renal
SNB-19 CNS = test system: SNB-19 CNS
SNB-75 CNS = test system: SNB-75 CNS
SNB-78 CNS = test system: SNB-78 CNS
SR leukemia = test system: SR leukemia
SW-620 colon = test system: SW-620 colon
TK-10 renal = test system: TK-10 renal
U251 CNS = test system: U251 CNS
UACC-257 melanoma = test system: UACC-257 melanoma
UACC-62 melanoma = test system: UACC-62 melanoma
UO-31 renal = test system: UO-31 renal

Compound CCOC(=O)c1cnc2sc3ccc4ccccc4c3n2c1=O has a TGI (786-0 renal) greater than 100 µM, a TGI (A549 NSCLC) greater than 100 µM and a TGI (ACHN renal) greater than 100 µM. The TGI (CAKI-1 renal) was 99.4 µM, the TGI (CCRF-CEM leukemia) was 82.6 µM and the TGI (COLO 205 colon) was greater than 100 µM. The TGI (DLD-1 colon) was greater than 100 µM, the TGI (DMS 114 small cell lung) was greater than 100 µM and the TGI (DMS 273 small cell lung) was greater than 100 µM. It also gave a TGI (EKVX NSCLC) greater than 100 µM, a TGI (HCC-2998 colon) greater than 100 µM and a TGI (HCT-116 colon) greater than 100 µM. It also gave a TGI (HCT-15 colon) greater than 100 µM, a TGI (HL-60(TB) leukemia) of 52 µM and a TGI (HOP-18 NSCLC) greater than 100 µM. It also gave a TGI (HOP-62 NSCLC) greater than 100 µM, a TGI (HOP-92 NSCLC) greater than 100 µM and a TGI (HT29 colon) greater than 100 µM. For the same compound, the TGI (IGROV1 ovarian) was greater than 100 µM, the TGI (K-562 leukemia) was greater than 100 µM and the TGI (KM12 colon) was greater than 100 µM. The TGI (KM20L2 colon) was greater than 100 µM, the TGI (LOX IMVI melanoma) was greater than 100 µM and the TGI (LXFL 529 NSCLC) was greater than 100 µM. For the same compound, the TGI (M14 melanoma) was greater than 100 µM, the TGI (M19-MEL melanoma) was greater than 100 µM and the TGI (MALME-3M melanoma) was greater than 100 µM. For the same compound, the TGI (MOLT-4 leukemia) was greater than 100 µM, the TGI (NCI-H226 lung) was greater than 100 µM and the TGI (NCI-H23 lung) was greater than 100 µM. It also gave a TGI (NCI-H460 lung) greater than 100 µM, a TGI (OVCAR-3 ovarian) greater than 100 µM and a TGI (OVCAR-4 ovarian) greater than 100 µM. For the same compound, the TGI (OVCAR-5 ovarian) was greater than 100 µM, the TGI (OVCAR-8 ovarian) was greater than 100 µM and the TGI (RPMI-8226 leukemia) was greater than 100 µM. It also gave a TGI (RXF 393 renal) greater than 100 µM, a TGI (RXF-631 renal) greater than 100 µM and a TGI (SF-268 CNS) greater than 100 µM. For the same compound, the TGI (SF-295 CNS) was greater than 100 µM, the TGI (SF-539 CNS) was greater than 100 µM and the TGI (SK-MEL-2 melanoma) was greater than 100 µM. The TGI (SK-MEL-28 melanoma) was greater than 100 µM, the TGI (SK-MEL-5 melanoma) was greater than 100 µM and the TGI (SK-OV-3 ovarian) was greater than 100 µM. The TGI (SN12C renal) was greater than 100 µM, the TGI (SNB-19 CNS) was greater than 100 µM and the TGI (SNB-75 CNS) was greater than 100 µM. The TGI (SNB-78 CNS) was greater than 100 µM, the TGI (SR leukemia) was greater than 100 µM and the TGI (SW-620 colon) was greater than 100 µM. The TGI (TK-10 renal) was greater than 100 µM, the TGI (U251 CNS) was greater than 100 µM and the TGI (UACC-257 melanoma) was greater than 100 µM. The TGI (UACC-62 melanoma) was greater than 100 µM and the TGI (UO-31 renal) was 94.6 µM.
